Measurements as given in the NIST ThermoML archive (doi:10.1016/j.jct.2015.05.024).
± gives the expanded uncertainty stated by the source.

Test: xn = mol fraction of the nth substance listed
Conditions: 100 kPa, Liquid; for speed of sound: Frequency=5 MHz, Pulse-echo method; for mass density: Vibrating tube method

OCCOCCOCCO [triethylene glycol] + O
speed of sound (298.15 K, x1 = 0.5907): 1645.7 ± 1.2 m/s | speed of sound (298.15 K, x1 = 0.7663): 1627.2 ± 1.3 m/s | speed of sound (298.15 K, x1 = 0.8917): 1620 ± 1.4 m/s | speed of sound (298.15 K, x1 = 0.9628): 1615.6 ± 1.4 m/s | speed of sound (298.15 K, x1 = 1): 1613.5 ± 1.4 m/s | mass density (298.15 K, x1 = 0.0107): 1009.15 ± 0.24 kg/m3 | mass density (298.15 K, x1 = 0.02047): 1019.12 ± 0.21 kg/m3 | mass density (298.15 K, x1 = 0.03972): 1036.1 ± 0.2 kg/m3 | mass density (298.15 K, x1 = 0.04979): 1043.71 ± 0.18 kg/m3 | mass density (298.15 K, x1 = 0.06996): 1056.75 ± 0.16 kg/m3 | mass density (298.15 K, x1 = 0.09424): 1069.14 ± 0.14 kg/m3 | mass density (298.15 K, x1 = 0.1481): 1087.52 ± 0.14 kg/m3 | mass density (298.15 K, x1 = 0.2006): 1097.87 ± 0.14 kg/m3 | mass density (298.15 K, x1 = 0.2502): 1103.88 ± 0.14 kg/m3 | mass density (298.15 K, x1 = 0.2988): 1107.76 ± 0.15 kg/m3 | mass density (298.15 K, x1 = 0.3492): 1110.52 ± 0.16 kg/m3 | mass density (298.15 K, x1 = 0.3925): 1112.26 ± 0.16 kg/m3 | mass density (298.15 K, x1 = 0.4502): 1113.99 ± 0.17 kg/m3 | mass density (298.15 K, x1 = 0.4877): 1114.87 ± 0.18 kg/m3 | mass density (298.15 K, x1 = 0.5004): 1115.13 ± 0.18 kg/m3 | mass density (298.15 K, x1 = 0.5739): 1116.38 ± 0.2 kg/m3 | mass density (298.15 K, x1 = 0.58): 1116.47 ± 0.2 kg/m3 | mass density (298.15 K, x1 = 0.6465): 1117.3 ± 0.21 kg/m3 | mass density (298.15 K, x1 = 0.651): 1117.35 ± 0.21 kg/m3 | mass density (298.15 K, x1 = 0.7008): 1117.83 ± 0.22 kg/m3 | mass density (298.15 K, x1 = 0.7471): 1118.22 ± 0.24 kg/m3 | mass density (298.15 K, x1 = 0.7677): 1118.37 ± 0.24 kg/m3 | mass density (298.15 K, x1 = 0.82): 1118.72 ± 0.26 kg/m3 | mass density (298.15 K, x1 = 0.8623): 1118.97 ± 0.27 kg/m3 | mass density (298.15 K, x1 = 0.8792): 1119.06 ± 0.28 kg/m3 | mass density (298.15 K, x1 = 0.8975): 1119.16 ± 0.29 kg/m3 | mass density (298.15 K, x1 = 0.9203): 1119.28 ± 0.29 kg/m3 | mass density (298.15 K, x1 = 0.9514): 1119.44 ± 0.31 kg/m3 | mass density (298.15 K, x1 = 0.9692): 1119.53 ± 0.31 kg/m3 | mass density (298.15 K, x1 = 1): 1119.69 ± 0.33 kg/m3 | speed of sound (303.15 K, x1 = 0.001004): 1513.5 ± 1.3 m/s | speed of sound (303.15 K, x1 = 0.002763): 1520.4 ± 1.2 m/s | speed of sound (303.15 K, x1 = 0.007937): 1539.9 ± 1.2 m/s | speed of sound (303.15 K, x1 = 0.01123): 1551.5 ± 1.2 m/s | speed of sound (303.15 K, x1 = 0.01908): 1577 ± 1.2 m/s | speed of sound (303.15 K, x1 = 0.0244): 1592.6 ± 1.2 m/s | speed of sound (303.15 K, x1 = 0.03263): 1614.3 ± 1.1 m/s | speed of sound (303.15 K, x1 = 0.0428): 1637.2 ± 1.1 m/s | speed of sound (303.15 K, x1 = 0.05068): 1652.5 ± 1.1 m/s | speed of sound (303.15 K, x1 = 0.05793): 1664.7 ± 1.1 m/s | speed of sound (303.15 K, x1 = 0.06625): 1676.8 ± 1.1 m/s | speed of sound (303.15 K, x1 = 0.07426): 1686.6 ± 1.1 m/s | speed of sound (303.15 K, x1 = 0.08178): 1694.5 ± 1.1 m/s | speed of sound (303.15 K, x1 = 0.08886): 1700.8 ± 1.1 m/s | speed of sound (303.15 K, x1 = 0.0936): 1704.5 ± 1.1 m/s | speed of sound (303.15 K, x1 = 0.09852): 1707.8 ± 1.1 m/s | speed of sound (303.15 K, x1 = 0.102): 1709.9 ± 1.1 m/s | speed of sound (303.15 K, x1 = 0.1059): 1712.1 ± 1.1 m/s | speed of sound (303.15 K, x1 = 0.1101): 1714.1 ± 1.1 m/s | speed of sound (303.15 K, x1 = 0.1102): 1714.2 ± 1.1 m/s | speed of sound (303.15 K, x1 = 0.1147): 1716 ± 1.1 m/s | speed of sound (303.15 K, x1 = 0.1193): 1717.7 ± 1.1 m/s | speed of sound (303.15 K, x1 = 0.1248): 1719.3 ± 1.1 m/s | speed of sound (303.15 K, x1 = 0.1295): 1720.5 ± 1.1 m/s | speed of sound (303.15 K, x1 = 0.1308): 1720.7 ± 1.1 m/s | speed of sound (303.15 K, x1 = 0.1337): 1721.3 ± 1.1 m/s | speed of sound (303.15 K, x1 = 0.1393): 1722.1 ± 1.1 m/s | speed of sound (303.15 K, x1 = 0.1423): 1722.4 ± 1.1 m/s | speed of sound (303.15 K, x1 = 0.1457): 1722.6 ± 1.1 m/s | speed of sound (303.15 K, x1 = 0.1695): 1722.1 ± 1.1 m/s | speed of sound (303.15 K, x1 = 0.1857): 1719.9 ± 1.1 m/s | speed of sound (303.15 K, x1 = 0.2042): 1716.3 ± 1.1 m/s | speed of sound (303.15 K, x1 = 0.2252): 1711.2 ± 1.1 m/s | speed of sound (303.15 K, x1 = 0.2499): 1704.6 ± 1.1 m/s | speed of sound (303.15 K, x1 = 0.3027): 1690 ± 1.1 m/s | speed of sound (303.15 K, x1 = 0.3394): 1680.6 ± 1.1 m/s | speed of sound (303.15 K, x1 = 0.4052): 1665.7 ± 1.2 m/s | speed of sound (303.15 K, x1 = 0.4916): 1649 ± 1.2 m/s | speed of sound (303.15 K, x1 = 0.6074): 1630 ± 1.2 m/s | speed of sound (303.15 K, x1 = 0.7552): 1614 ± 1.3 m/s | speed of sound (303.15 K, x1 = 0.8683): 1607.4 ± 1.4 m/s | speed of sound (303.15 K, x1 = 0.9616): 1601.7 ± 1.4 m/s | speed of sound (303.15 K, x1 = 1): 1599.1 ± 1.4 m/s | mass density (303.15 K, x1 = 0.0107): 1007.53 ± 0.24 kg/m3 | mass density (303.15 K, x1 = 0.02047): 1017.29 ± 0.21 kg/m3 | mass density (303.15 K, x1 = 0.03972): 1033.87 ± 0.2 kg/m3
